Test results from patent US20240400561A1, “NOVEL SUBSTITUTED SULFONYLUREA COMPOUNDS AS INHIBITORS OF INTERLEUKIN-1 ACTIVITY” (Viva Star Biosciences (Suzhou) Co., Ltd., priority 2021, published 2024).

These compounds were tested against T1, NLRP3 (Homo sapiens, UniProt Q96P20) (assay: THP-1 cell assay (LPS priming, nigericin), IL1β release by HTRF; called pyroptosis assay, THP IC50). Details: NLRP3 inhibitory activity; THP-1 cells, 1.0 ug/mL LPS, compound 3 hrs, nigericin 5 uM 1 hr, IL1β in supernatant.
T1 construct: Seed THP-1 cells (5.56*10^5 cells/mL) containing 1.0 ug/mL LPS; endogenous in cells; host or cells: THP-1 cells
T1 sequence (Q96P20 whole entry): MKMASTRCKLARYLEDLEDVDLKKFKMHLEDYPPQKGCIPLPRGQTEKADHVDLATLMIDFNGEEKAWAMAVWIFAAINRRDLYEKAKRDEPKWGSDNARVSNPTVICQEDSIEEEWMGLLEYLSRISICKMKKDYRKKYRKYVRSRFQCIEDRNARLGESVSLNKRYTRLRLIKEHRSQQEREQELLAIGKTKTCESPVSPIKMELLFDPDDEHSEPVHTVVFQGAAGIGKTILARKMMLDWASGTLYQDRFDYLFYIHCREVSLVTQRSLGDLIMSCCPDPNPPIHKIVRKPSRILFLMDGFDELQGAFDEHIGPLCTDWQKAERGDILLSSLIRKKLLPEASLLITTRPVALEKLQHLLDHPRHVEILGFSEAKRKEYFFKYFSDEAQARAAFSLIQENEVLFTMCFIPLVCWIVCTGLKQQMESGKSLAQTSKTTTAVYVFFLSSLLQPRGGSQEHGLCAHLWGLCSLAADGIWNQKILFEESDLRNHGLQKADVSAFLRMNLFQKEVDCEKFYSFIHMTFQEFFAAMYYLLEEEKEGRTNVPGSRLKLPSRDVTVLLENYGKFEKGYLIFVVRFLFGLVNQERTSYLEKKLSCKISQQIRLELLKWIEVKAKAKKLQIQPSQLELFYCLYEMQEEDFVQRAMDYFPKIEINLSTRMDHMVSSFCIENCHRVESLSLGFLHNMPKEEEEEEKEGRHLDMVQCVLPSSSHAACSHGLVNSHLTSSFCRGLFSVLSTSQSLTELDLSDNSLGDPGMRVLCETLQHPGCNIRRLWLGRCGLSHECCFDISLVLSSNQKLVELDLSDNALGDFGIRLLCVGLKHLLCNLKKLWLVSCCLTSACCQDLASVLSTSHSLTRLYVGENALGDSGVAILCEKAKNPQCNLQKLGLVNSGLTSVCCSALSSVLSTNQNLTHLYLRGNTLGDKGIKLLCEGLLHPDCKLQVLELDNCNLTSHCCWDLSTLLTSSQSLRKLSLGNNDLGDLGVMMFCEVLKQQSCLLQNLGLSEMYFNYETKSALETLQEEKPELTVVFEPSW
Type: cell-based
Experimental: The following method was used for compound screening. • 1. Seed THP-1 cells (5.56*10^5 cells/mL) containing 1.0 ug/mL LPS (SIGMA, L6529) in 45 uL RPMI 1640 medium (without FBS) into 384-well plate (Thermo Scientific, 164688). • 2. Add 5 uL compound (10 doses starting from 5 uM, 1:3 dilution) or vehicle (0.05% DMSO in medium) to the appropriate wells. • 3. Centrifuge the plates at 1000 rpm for 2 mins and incubate for 3 hrs at 37° C., 5% CO2. • 4. Add 5 uL nigericin (MEC, HY-100381) (final conc. 5 uM) to sample wells and positive control wells; add 5 uL RPMI 1640 medium to negative control wells. • 5. Centrifuge plates at 1000 rpm for 2 mins and incubate for 1 hr at 37° C., 5% CO2. • 6. At the end of the incubation period, centrifuge plates at 1000 rpm for 6 mins and transfer 8 uL supernatant into 384-well assay plates (PerkinElmer, 6008280). • 7. Add 8 ul RPMI 1640 medium into each well and spin down for 10 secs. • 8. Prepare the standard solutions and pre-mixed IL1β antibody solution of Human […] kits (PerkinElmer, 62HIL1BPEH) according to the instruction. • 9. Add 16 uL standard solutions into clear wells of 384-well assay plates. • 10. Add 4 uL pre-mixed IL1β antibody solution to all wells including sample wells, positive control wells, negative control wells and standard solutions wells. • 11. Seal the plates, spin down for 10 secs, incubation for overnight at RT and read on an HTRF® compatible reader (BMG LABTECH, PHERAstar FS). • 12. The concentrations of IL1β for treated wells are calculated by the standard curve. • 13. The IC50 data is fitted to a non-liner regression equation (log inhibitor vs. response—Variable slope four parameters)).

Structure (SMILES)	IC50 [nM]
CC(C)(O)c1csc(S(=O)(=O)NC(=O)Nc2c(-c3ccn4nccc4c3)ccc3c2CCC3)c1 [Example 60, 4-(2-hydroxypropan-2-yl)-N-((5-(pyrazolo[1,5-a]pyridin-5-yl)-2,3-dihydro-1H-inden-4-yl)carbamoyl)thiophene-2-sulfonamide]	≤ 30
Cn1cnc2ccc(-c3ccc4c(c3NC(=O)NS(=O)(=O)c3cc(C(C)(C)O)cs3)CCC4)cc21 [Example 43, 4-(2-hydroxypropan-2-yl)-N-((5-(1-methyl-1H-benzo[d]imidazol-6-yl)-2,3-dihydro-1H-inden-4-yl)carbamoyl)thiophene-2-sulfonamide]	300 to 1000
CC(C)(O)c1csc(S(=O)(=O)NC(=O)Nc2c(-c3ccn4cncc4c3)ccc3c2CCC3)c1 [Example 54, 4-(2-hydroxypropan-2-yl)-N-((5-(imidazo[1,5-a]pyridin-7-yl)-2,3-dihydro-1H-inden-4-yl)carbamoyl)thiophene-2-sulfonamide]	≤ 30
CC(C)(O)c1csc(S(=O)(=O)NC(=O)Nc2c(-c3cnc4ccnn4c3)ccc3c2CCC3)c1 [Example 64, 4-(2-hydroxypropan-2-yl)-N-((5-(pyrazolo[1,5-a]pyrimidin-6-yl)-2,3-dihydro-1H-inden-4-yl)carbamoyl)thiophene-2-sulfonamide]	1000 to 2000
Cc1cc2c(c(NC(=O)NS(=O)(=O)C3CC(OC4CC4)C3)c1-c1ccnc3[nH]ccc13)CCC2 (stereo not shown) [Example 3, 3-cyclopropoxy-N-((6-methyl-5-(1H-pyrrolo[2,3-b]pyridin-4-yl)-2,3-dihydro-1H-inden-4-yl)carbamoyl)cyclobutane-1-sulfonamide]	30 to 300
Cc1cc2cc(-c3c(C)cc4c(c3NC(=O)NS(=O)(=O)c3ccn(C5CC5)n3)CCC4)ccn2n1 [Example 88, 1-cyclopropyl-N-((6-methyl-5-(2-methylpyrazolo[1,5-a]pyridin-5-yl)-2,3-dihydro-1H-inden-4-yl)carbamoyl)-1H-pyrazole-3-sulfonamide]	≤ 30
Cc1cc2c(c(NC(=O)NS(=O)(=O)c3cc(CN(C)C)n(C4CC4)n3)c1-c1ccn3nccc3c1)CCC2 [Example 77, 1-cyclopropyl-5-((dimethylamino)methyl)-N-((6-methyl-5-(pyrazolo[1,5-a]pyridin-5-yl)-2,3-dihydro-1H-inden-4-yl)carbamoyl)-1H-pyrazole-3-sulfonamide]	30 to 300
CC(C)(O)c1csc(S(=O)(=O)NC(=O)Nc2c(-c3ccc4nccn4c3)ccc3c2CCC3)c1 [Example 51, 4-(2-hydroxypropan-2-yl)-N-((5-(imidazo[1,2-a]pyridin-6-yl)-2,3-dihydro-1H-inden-4-yl)carbamoyl)thiophene-2-sulfonamide]	≤ 30
COC(c1cc(S(=O)(=O)NC(=O)Nc2c3c(cc(C)c2-c2ccn4nccc4c2)CCC3)nn1C)C1CC1 (stereo not shown) [Example 15, 5-(cyclopropyl(methoxy)methyl)-1-methyl-N-((6-methyl-5-(pyrazolo[1,5-a]pyridin-5-yl)2,3-dihydro-1H-inden-4-yl)carbamoyl)-1H-pyrazole-3-sulfonamide]	30 to 300
Cc1c(-c2ccc3c(c2NC(=O)NS(=O)(=O)c2cc(C(C)(C)O)cs2)CCC3)ccn2ccnc12 [Example 72, 4-(2-hydroxypropan-2-yl)-N-((5-(8-methylimidazo[1,2-a]pyridin-7-yl)-2,3-dihydro-1H-inden-4-yl)carbamoyl)thiophene-2-sulfonamide]	30 to 300
Cn1ccc2cc(-c3ccc4c(c3NC(=O)NS(=O)(=O)c3cc(C(C)(C)O)cs3)CCC4)cnc21 [Example 44, 4-(2-hydroxypropan-2-yl)—N-((5-(1-methyl-1H-pyrrolo[2,3-b]pyridin-5-yl)-2,3-dihydro-1H-inden-4-yl)carbamoyl)thiophene-2-sulfonamide]	30 to 300
CC(C)(O)c1csc(S(=O)(=O)NC(=O)Nc2c(-c3ccnc4c3ccn4C3CCOC3)ccc3c2CCC3)c1 (stereo not shown) [Example 58, 4-(2-hydroxypropan-2-yl)-N-((5-(1-(tetrahydrofuran-3-yl)-1H-pyrrolo[2,3-b]pyridin-4-yl)-2,3-dihydro-1H-inden-4-yl)carbamoyl)thiophene-2-sulfonamide]	30 to 300
CO[C@@H](C)Cn1ccc(S(=O)(=O)NC(=O)Nc2c3c(cc(C)c2-c2ccn4nccc4c2)CCC3)n1 [Example 26, (S)-1-(2-methoxypropyl)-N-((6-methyl-5-(pyrazolo[1,5-a]pyridin-5-yl)-2,3-dihydro-1H-inden-4-yl)carbamoyl)-1H-pyrazole-3-sulfonamide]	≤ 30

The remaining lines, values ahead:

IC50 [nM]	Structure (SMILES)
30 to 300	Cc1cc2c(c(NC(=O)NS(=O)(=O)c3ccc(=O)n(CC4CC4)c3)c1-c1ccn3nccc3c1)CCC2 [Example 39, 1-(cyclopropylmethyl)-N-((6-methyl-5-(pyrazolo[1,5-a]pyridin-5-yl)-2,3-dihydro-1H-inden-4-yl)carbamoyl)-6-oxo-1,6-dihydropyridine-3-sulfonamide]
30 to 300	Cc1cc2c(c(NC(=O)NS(=O)(=O)c3ccn(C4CC4)n3)c1-c1ccc3ccnn3c1)CCC2 [Example 92, 1-cyclopropyl-N-((6-methyl-5-(pyrazolo[1,5-a]pyridin-6-yl)-2,3-dihydro-1H-inden-4-yl)carbamoyl)-1H-pyrazole-3-sulfonamide]
≤ 30	Cc1cc2c(c(NC(=O)NS(=O)(=O)c3ccn(C4CC4)n3)c1-c1ccc3ncnn3c1)CCC2 [Example 97, N-((5-([1,2,4]triazolo[1,5-a]pyridin-6-yl)-6-methyl-2,3-dihydro-1H-inden-4-yl)carbamoyl)-1-cyclopropyl-1H-pyrazole-3-sulfonamide]
30 to 300	Cc1cc2c(c(NC(=O)NS(=O)(=O)c3ccnc(C4CCC4)c3)c1-c1ccn3nccc3c1)CCC2 [Example 38, 2-cyclobutyl-N-((6-methyl-5-(pyrazolo[1,5-a]pyridin-5-yl)-2,3-dihydro-1H-inden-4-yl)carbamoyl)pyridine-4-sulfonamide]
30 to 300	Cn1ccc2c(-c3ccc4c(c3NC(=O)NS(=O)(=O)c3cnn(CC5CC5)c3)CCC4)ccnc21 [Example 4, 1-(cyclopropylmethyl)-N-((5-(1-methyl-1H-pyrrolo[2,3-b]pyridin-4-yl)-2,3-dihydro-1H-inden-4-yl)carbamoyl)-1H-pyrazole-4-sulfonamide]
≤ 30	Cc1cc2c(c(NC(=O)NS(=O)(=O)c3cnn(CC4CC4)c3)c1-c1ccc3nccn3c1)CCC2 [Example 19, 1-(cyclopropylmethyl)-N-((5-(imidazo[1,2-a]pyridin-6-yl)-6-methyl-2,3-dihydro-1H-inden-4-yl)carbamoyl)-1H-pyrazole-4-sulfonamide]
≤ 30	Cc1cc2c(c(NC(=O)NS(=O)(=O)c3ccn(C[C@@H]4CCO4)n3)c1-c1ccn3nccc3c1)CCC2 [Example 91, (S)—N-((6-methyl-5-(pyrazolo[1,5-a]pyridin-5-yl)-2,3-dihydro-1H-inden-4-yl)carbamoyl)-1-(oxetan-2-ylmethyl)-1H-pyrazole-3-sulfonamide]
≤ 30	Cc1cc2c(c(NC(=O)NS(=O)(=O)c3ccn(C4CCC4)n3)c1-c1ccn3nccc3c1)CCC2 [Example 23, 1-cyclobutyl-N-((6-methyl-5-(pyrazolo[1,5-a]pyridin-5-yl)-2,3-dihydro-1H-inden-4-yl)carbamoyl)-1H-pyrazole-3-sulfonamide]
≤ 30	Cc1cc2c(c(NC(=O)NS(=O)(=O)c3cncc(NC4CC4)c3)c1-c1ccn3nccc3c1)CCC2 [Example 37, 5-(cyclopropylamino)-N-((6-methyl-5-(pyrazolo[1,5-a]pyridin-5-yl)-2,3-dihydro-1H-inden-4-yl)carbamoyl)pyridine-3-sulfonamide]
